The results in this text go back to ChEMBL document CHEMBL4400537, “Virtual Screening Identifies Irreversible FMS-like Tyrosine Kinase 3 Inhibitors with Activity toward Resistance-Conferring Mutations” (J Med Chem, 2019).

Experiment [1] concerns T1, Receptor-type tyrosine-protein kinase FLT3 (Homo sapiens), P36888 [D835Y].
T1 sequence (whole entry): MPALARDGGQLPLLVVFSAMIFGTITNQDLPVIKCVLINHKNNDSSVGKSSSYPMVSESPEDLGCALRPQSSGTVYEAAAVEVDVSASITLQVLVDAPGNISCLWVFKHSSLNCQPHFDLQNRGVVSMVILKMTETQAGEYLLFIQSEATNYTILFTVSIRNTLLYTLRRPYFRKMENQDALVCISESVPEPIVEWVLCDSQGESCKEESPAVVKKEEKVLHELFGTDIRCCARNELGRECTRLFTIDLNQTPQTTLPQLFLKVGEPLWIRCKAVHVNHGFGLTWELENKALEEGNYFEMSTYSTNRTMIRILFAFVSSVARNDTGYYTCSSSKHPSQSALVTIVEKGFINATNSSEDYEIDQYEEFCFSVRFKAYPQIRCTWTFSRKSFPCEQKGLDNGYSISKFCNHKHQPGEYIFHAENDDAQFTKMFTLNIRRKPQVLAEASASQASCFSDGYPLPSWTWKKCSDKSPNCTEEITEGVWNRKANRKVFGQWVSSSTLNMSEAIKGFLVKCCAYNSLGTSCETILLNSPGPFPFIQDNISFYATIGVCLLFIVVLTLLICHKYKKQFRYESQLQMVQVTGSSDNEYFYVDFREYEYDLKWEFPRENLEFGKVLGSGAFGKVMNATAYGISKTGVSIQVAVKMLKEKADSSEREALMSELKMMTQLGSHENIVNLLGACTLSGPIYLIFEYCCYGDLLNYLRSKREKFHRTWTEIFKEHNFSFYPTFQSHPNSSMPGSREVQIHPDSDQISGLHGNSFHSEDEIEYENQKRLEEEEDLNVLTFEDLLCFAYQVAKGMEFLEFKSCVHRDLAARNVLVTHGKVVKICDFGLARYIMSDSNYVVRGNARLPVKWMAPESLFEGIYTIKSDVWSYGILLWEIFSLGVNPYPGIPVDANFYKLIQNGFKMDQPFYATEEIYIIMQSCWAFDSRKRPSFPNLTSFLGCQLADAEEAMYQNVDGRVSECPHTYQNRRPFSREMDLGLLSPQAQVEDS
Briefly: Inhibition of recombinant human FLT3 D835Y mutant (571 to 993 residues) expressed in baculovirus expression system at 100 nM preincubated for 30 mins in presence of 1000 fold glutathione followed by myelobasic protein addition and measured after 120 mins relative to control.

Another experiment relates to THP-1. Briefly: cells. The following applies: Homo sapiens, THP-1, 72 h.
The subject of experiment [2] is T1, Receptor-type tyrosine-protein kinase FLT3 (Homo sapiens), P36888 [D835Y]. Briefly: Inhibition of human FLT3 D835Y mutant expressed in baculovirus expression system at 100 nM relative to control.
The target of experiment [3] is Tyrosine-protein kinase receptor UFO (Homo sapiens) (UniProt P30530). The experiment in a line: Inhibition of full length human N-terminal 6His-tagged AXL expressed in baculovirus expression system at 100 nM relative to control.
The target of experiment [4] is Tyrosine-protein kinase Lck (Homo sapiens) (UniProt P06239). Briefly: Inhibition of full length human N-terminal 6His-tagged LCK expressed in baculovirus expression system at 100 nM relative to control.
A further experiment concerns MOLM-14. Briefly: cells. The following applies: Homo sapiens, MOLM-14, 72 h.
For experiment [5], the system named is T1, Receptor-type tyrosine-protein kinase FLT3 (Homo sapiens), P36888 [D835Y]. Briefly: Inhibition of covalent binding of 100 uM (Z)-N-(2-(2-(4-(2,8-Diethyl-5,5-difluoro-1,3,7,9-tetramethyl-5H-4lambda4,5lambda4-dipyrrolo[1,2-c:2',1'-f ][1,3,2]diazaborinin-10-yl)phenoxy)-acetamido)ethyl)-2,4-dimethyl-5-((2-oxo-5-(vinylsulfon-amido)-indolin-3-ylidene)methyl)-1H-pyrrole-3-carboxamide to recombinant human FLT3 D835Y mutant (571 to 993 residues) expressed in baculovirus expression system at 100 uM by Western blot analysis.

Experiment [6] addresses Platelet-derived growth factor receptor beta (Homo sapiens) (UniProt P09619). The experiment in a line: Inhibition of full length human N-terminal GST-tagged PDGFRbeta expressed in baculovirus expression system at 100 nM relative to control.
Experiment [7] relates to T1, Receptor-type tyrosine-protein kinase FLT3 (Homo sapiens), P36888 [D835Y]. The experiment in a line: Inhibition of recombinant human FLT3 D835Y mutant (571 to 993 residues) expressed in baculovirus expression system at 100 nM preincubated for 24 hrs in presence of 1000 fold glutathione followed by myelobasic protein addition and measured after 120 mins relative to control.

Experiment [8] deals with Receptor-type tyrosine-protein kinase FLT3 (Homo sapiens, UniProt P36888, D835V/ITD).
The target of experiment [9] is Interleukin-1 receptor-associated kinase 1 (Homo sapiens) (UniProt P51617). Briefly: Inhibition of full length human N-terminal 6His-tagged IRAK1 expressed in baculovirus expression system at 100 nM relative to control.
Experiment [10] has as its target Receptor-type tyrosine-protein kinase FLT3 (Homo sapiens, UniProt P36888, D835Y). The experiment in a line: Irreversible inhibition of recombinant human FLT3 D835Y mutant (571 to 993 residues) expressed in baculovirus expression system preincubated for 5 to 30 mins followed by myelobasic protein addition measured after 120 mins in presence of ATP by ADP-Glo assay.

The target in experiment [11] is Receptor-type tyrosine-protein kinase FLT3 (Homo sapiens, UniProt P36888, D835H).
The target of experiment [12] is Receptor-type tyrosine-protein kinase FLT3 (Homo sapiens, UniProt P36888, ITD).
In experiment [13] the target is Platelet-derived growth factor receptor alpha (Homo sapiens) (UniProt P16234). The experiment in a line: Inhibition of full length human N-terminal 6His-tagged PDGFRalpha expressed in baculovirus expression system at 100 nM relative to control.
Experiment [14] addresses Mitogen-activated protein kinase 3 (Homo sapiens) (UniProt P27361). Briefly: Inhibition of full length N-terminal GST-tagged human ERK1 expressed in baculovirus expression system assessed as residual activity at 100 nM relative to control.
The target of experiment [15] is Mast/stem cell growth factor receptor Kit (Homo sapiens) (UniProt P10721). The experiment in a line: Inhibition of human N-terminal GST-tagged c-KIT expressed in baculovirus expression system at 100 nM relative to control.
The target of experiment [16] is T2, Receptor-type tyrosine-protein kinase FLT3 (Homo sapiens, UniProt P36888). The experiment in a line: Binding affinity to auto-inhibited form of wild type human N-terminal GST-tagged FLT3 expressed in baculovirus expression.
Experiment [17] has as its target Receptor-type tyrosine-protein kinase FLT3 (Homo sapiens) (UniProt P36888). The experiment in a line: Inhibition of human N-terminal GST-tagged FLT3 expressed in baculovirus expression system at 100 nM relative to control.
In experiment [18] the target is T2, Receptor-type tyrosine-protein kinase FLT3.
For experiment [19], the target named is Glycogen synthase kinase-3 alpha (Homo sapiens) (UniProt P49840). Briefly: Inhibition of human N-terminal His-tagged GSK3alpha expressed in baculovirus expression system assessed as residual activity at 100 nM relative to control.
The target in experiment [20] is Glycogen synthase kinase-3 beta (Homo sapiens) (UniProt P49841). Briefly: Inhibition of human N-terminal His-tagged GSK3beta expressed in baculovirus expression system assessed as residual activity at 100 nM relative to control.
The target of experiment [21] is Tyrosine-protein kinase Lyn (Homo sapiens) (UniProt P07948). Briefly: Inhibition of full length human N-terminal 6His-tagged LYN expressed in baculovirus expression system at 100 nM relative to control.
The test system of another experiment is Jurkat. Briefly: cells. As to conditions: Homo sapiens, 72 h.
Experiment [22] has as its target Mitogen-activated protein kinase 1 (Homo sapiens) (UniProt P28482). The experiment in a line: Inhibition of human N-terminal GST-tagged ERK2 (14 to 429 residues) expressed in baculovirus expression system assessed as residual activity at 100 nM relative to control.
Experiment [23] deals with Proto-oncogene tyrosine-protein kinase receptor Ret (Homo sapiens) (UniProt P07949). Briefly: Inhibition of full length human N-terminal GST-tagged RET expressed in baculovirus expression system at 100 nM relative to control.
In experiment [24] the test system is MV4-11. Briefly: cells. As to conditions: Homo sapiens, MV4-11, 72 h.
Experiment [25] deals with MV4-11. The experiment in a line: Cytotoxicity in human MV4-11 cells assessed as induction of cell death at 10 uM incubated for 72 hrs by CellTiter-Blue assay. Type of experiment: functional.

pIC50, pKd, pKi: −log10 of the molar value. The source made the active and inactive calls. No cut-off for these calls is given here.

Mast/stem cell growth factor receptor Kit (Homo sapiens), sequence (P10721 whole entry): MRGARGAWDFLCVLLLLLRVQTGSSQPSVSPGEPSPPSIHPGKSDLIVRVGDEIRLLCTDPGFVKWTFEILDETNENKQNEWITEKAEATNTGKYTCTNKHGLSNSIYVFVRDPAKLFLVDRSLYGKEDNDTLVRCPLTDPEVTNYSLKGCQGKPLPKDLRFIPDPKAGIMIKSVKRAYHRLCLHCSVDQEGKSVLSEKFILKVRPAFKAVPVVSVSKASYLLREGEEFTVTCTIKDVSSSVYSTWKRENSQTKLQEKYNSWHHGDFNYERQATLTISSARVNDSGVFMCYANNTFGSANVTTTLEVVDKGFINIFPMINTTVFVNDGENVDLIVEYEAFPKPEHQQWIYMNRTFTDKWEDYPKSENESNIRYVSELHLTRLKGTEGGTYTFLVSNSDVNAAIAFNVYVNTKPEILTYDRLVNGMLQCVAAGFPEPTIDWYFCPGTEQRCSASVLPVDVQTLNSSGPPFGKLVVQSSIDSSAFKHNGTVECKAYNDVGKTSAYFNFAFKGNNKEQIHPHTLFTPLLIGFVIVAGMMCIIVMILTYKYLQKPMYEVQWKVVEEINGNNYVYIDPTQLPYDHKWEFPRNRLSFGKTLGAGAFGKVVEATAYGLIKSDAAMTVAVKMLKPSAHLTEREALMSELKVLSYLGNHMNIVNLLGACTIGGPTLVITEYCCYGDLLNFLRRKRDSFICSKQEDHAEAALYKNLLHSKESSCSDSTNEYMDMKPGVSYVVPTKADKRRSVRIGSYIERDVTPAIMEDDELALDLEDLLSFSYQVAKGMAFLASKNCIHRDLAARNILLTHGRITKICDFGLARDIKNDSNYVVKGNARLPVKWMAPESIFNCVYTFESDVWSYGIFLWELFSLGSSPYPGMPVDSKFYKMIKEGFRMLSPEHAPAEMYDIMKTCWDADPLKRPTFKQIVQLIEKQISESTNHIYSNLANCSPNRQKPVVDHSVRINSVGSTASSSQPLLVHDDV
Proto-oncogene tyrosine-protein kinase receptor Ret (Homo sapiens), sequence (P07949 whole entry): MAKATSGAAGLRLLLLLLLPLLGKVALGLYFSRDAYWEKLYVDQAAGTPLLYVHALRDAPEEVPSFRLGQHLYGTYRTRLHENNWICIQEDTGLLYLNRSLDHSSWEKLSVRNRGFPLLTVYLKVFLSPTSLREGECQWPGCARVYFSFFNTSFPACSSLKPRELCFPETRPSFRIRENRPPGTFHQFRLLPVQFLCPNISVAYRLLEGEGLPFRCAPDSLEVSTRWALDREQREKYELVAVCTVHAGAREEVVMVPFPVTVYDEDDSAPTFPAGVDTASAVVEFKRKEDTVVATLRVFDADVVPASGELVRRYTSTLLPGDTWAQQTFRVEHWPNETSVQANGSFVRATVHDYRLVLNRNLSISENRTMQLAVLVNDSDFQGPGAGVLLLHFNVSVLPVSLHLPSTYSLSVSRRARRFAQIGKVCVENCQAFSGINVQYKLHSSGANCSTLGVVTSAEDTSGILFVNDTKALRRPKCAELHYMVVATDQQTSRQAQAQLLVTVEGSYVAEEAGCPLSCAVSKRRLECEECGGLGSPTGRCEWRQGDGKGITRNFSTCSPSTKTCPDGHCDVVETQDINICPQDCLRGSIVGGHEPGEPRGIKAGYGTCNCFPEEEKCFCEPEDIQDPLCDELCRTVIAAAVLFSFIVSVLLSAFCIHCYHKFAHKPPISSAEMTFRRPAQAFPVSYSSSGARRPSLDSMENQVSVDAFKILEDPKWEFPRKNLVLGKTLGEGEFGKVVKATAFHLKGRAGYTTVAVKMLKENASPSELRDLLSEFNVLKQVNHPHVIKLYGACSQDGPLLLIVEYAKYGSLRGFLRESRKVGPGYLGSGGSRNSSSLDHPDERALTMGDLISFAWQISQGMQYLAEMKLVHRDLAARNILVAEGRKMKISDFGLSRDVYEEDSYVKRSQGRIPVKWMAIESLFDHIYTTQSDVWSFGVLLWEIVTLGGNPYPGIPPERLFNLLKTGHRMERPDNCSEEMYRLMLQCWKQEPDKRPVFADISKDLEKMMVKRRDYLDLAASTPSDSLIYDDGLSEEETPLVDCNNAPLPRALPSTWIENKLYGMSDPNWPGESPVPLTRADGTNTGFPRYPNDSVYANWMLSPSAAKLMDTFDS
Glycogen synthase kinase-3 beta (Homo sapiens), sequence (P49841 whole entry, looked up): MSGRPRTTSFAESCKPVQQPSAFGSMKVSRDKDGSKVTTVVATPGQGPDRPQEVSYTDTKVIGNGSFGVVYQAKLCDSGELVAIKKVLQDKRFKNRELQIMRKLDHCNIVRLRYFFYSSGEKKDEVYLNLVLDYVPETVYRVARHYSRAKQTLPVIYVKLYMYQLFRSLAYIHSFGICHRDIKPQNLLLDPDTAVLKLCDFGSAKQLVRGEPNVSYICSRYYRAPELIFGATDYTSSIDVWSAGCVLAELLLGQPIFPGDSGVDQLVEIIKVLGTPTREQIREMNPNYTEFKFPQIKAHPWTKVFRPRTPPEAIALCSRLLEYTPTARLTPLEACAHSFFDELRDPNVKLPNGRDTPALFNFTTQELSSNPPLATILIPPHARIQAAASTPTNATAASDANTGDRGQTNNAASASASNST
Glycogen synthase kinase-3 alpha (Homo sapiens), sequence (P49840 2-483 limits assumed): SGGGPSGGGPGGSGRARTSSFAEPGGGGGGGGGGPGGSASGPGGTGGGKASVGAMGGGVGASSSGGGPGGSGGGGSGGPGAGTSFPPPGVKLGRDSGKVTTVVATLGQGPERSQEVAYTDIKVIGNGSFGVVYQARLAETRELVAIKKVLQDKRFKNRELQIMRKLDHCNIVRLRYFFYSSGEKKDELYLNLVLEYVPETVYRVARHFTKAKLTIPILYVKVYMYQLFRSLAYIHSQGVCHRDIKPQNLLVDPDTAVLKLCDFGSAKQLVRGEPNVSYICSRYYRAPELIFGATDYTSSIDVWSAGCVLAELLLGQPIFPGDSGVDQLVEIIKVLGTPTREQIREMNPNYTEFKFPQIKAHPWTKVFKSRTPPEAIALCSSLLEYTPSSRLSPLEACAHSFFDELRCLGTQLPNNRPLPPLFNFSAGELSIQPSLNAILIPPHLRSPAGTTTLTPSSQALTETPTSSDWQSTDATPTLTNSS
Platelet-derived growth factor receptor beta (Homo sapiens), sequence (P09619 whole entry, the tested form may be a part): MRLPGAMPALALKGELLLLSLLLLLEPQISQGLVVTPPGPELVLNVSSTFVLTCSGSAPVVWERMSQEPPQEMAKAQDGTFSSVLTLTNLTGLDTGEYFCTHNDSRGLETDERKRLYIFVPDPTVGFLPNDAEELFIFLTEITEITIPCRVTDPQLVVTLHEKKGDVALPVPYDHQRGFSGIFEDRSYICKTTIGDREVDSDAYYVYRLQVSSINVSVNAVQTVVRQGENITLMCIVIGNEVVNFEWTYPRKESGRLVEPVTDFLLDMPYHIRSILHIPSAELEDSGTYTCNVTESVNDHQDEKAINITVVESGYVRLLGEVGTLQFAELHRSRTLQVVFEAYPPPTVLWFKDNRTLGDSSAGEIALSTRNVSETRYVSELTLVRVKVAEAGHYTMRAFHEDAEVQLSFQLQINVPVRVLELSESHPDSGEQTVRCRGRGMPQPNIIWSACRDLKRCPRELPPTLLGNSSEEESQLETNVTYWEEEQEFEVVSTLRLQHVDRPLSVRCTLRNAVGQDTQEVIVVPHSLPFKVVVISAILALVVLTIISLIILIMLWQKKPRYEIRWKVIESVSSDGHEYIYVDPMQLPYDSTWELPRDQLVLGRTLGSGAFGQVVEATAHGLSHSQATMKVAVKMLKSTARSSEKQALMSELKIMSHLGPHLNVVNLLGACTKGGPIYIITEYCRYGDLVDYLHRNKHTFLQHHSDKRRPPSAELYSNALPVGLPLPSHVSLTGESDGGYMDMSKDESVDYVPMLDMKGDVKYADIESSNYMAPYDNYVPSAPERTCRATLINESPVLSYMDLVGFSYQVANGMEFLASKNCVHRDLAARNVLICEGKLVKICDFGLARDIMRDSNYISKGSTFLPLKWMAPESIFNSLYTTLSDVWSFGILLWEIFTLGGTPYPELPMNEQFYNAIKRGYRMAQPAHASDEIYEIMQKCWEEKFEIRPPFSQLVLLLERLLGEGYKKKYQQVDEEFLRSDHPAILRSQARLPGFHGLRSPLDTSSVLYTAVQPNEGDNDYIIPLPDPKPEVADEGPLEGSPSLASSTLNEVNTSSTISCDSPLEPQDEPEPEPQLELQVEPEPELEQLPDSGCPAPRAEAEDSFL
Tyrosine-protein kinase Lck (Homo sapiens), sequence (P06239 2-509 limits assumed): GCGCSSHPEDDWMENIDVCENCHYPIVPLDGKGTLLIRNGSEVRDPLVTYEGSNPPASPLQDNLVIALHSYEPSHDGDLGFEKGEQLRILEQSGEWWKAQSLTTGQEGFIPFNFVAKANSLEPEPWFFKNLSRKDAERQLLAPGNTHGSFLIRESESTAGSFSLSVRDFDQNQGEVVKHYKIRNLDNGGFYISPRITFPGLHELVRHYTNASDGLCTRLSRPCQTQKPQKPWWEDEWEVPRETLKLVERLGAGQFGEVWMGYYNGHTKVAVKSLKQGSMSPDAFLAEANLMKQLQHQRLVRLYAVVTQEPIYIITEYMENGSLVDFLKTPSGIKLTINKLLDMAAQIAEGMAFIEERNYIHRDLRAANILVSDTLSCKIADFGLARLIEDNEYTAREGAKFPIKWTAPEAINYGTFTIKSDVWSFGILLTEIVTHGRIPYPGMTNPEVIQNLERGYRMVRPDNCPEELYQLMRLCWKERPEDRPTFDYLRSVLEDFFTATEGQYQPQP
Mitogen-activated protein kinase 1 (Homo sapiens), sequence (P28482 whole entry, the tested form may be a part): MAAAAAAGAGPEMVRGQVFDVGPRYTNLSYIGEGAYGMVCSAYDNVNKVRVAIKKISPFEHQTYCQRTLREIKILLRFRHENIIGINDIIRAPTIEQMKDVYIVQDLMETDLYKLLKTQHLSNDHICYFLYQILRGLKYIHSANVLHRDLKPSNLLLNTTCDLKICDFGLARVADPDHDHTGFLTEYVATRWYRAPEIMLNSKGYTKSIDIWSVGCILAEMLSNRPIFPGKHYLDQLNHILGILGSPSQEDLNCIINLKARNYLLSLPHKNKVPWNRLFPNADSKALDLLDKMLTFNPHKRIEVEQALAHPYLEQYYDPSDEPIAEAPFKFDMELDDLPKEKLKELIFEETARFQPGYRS

Turning to `C=CS(=O)(=O)Nc1ccc2c(c1)/C(=C/c1[nH]c(C)c(C(=O)NCCN(CC)CC)c1C)C(=O)N2`, the inhibition in experiment [1] was 68%; in [2], 99%; in experiment [3] it was 81 to 93%; in experiment [4], 81 to 93%; in experiment [5], 28%; in experiment [6], 14%. The inhibition is 37% in experiment [7]; 81 to 93% in [9]; 24% in [13]; 34% in experiment [15]; 95% in [17]; 81 to 93% in experiment [21]. In addition, in experiment [23], the inhibition was 96%. For the same compound, the pIC50 in the experiment with THP-1 was under 6.00; in the experiment with MOLM-14, 8.11; with Jurkat, under 6.00; in the experiment with MV4-11 [24], 8.22. Besides, the pKd was 9.08 in [8]; 8.89 in experiment [11]; 8.24 in experiment [12]; 7.19 in experiment [16]; 8.64 in [18]. Moreover, the pKi in [10] is 8.70. The inhibition result in experiment [14], in experiment [19], in [20] and in experiment [22] was “inactive” in each case.
Turning to `Cc1cc(Nc2ccnc(Nc3ccccc3)n2)n[nH]1`, the Activity in the experiment on MV4-11 [25] is 89%. Further, in the experiment on MV4-11 [24], the pIC50 was under 9.00.
